Test system: C. acnes
Test: Antibacterial activity: inhibition diameter of growth of C. acnes
Type: cell-based, Cutibacterium acnes
Conditions: for Inhibition diameter (cm): C. acnes
From the text: In addition, the antibacterial activity (C. acnes) of these three products was compared according to the method described later in the present application. The inhibition diameter is proportional to the antibacterial efficacy of the product tested.
The results concerning the antibacterial effect of the active ingredient according to the invention compared to those of punicalagin, the main compound of the polyphenols present in the fruit of the pomegranate, are presented in Table 6.

O=C1O[C@H]2[C@@H]3OC(=O)c4cc(O)c(O)c(O)c4-c4c(O)c(O)c5oc(=O)c6c(c(O)c(O)c7oc(=O)c4c5c76)-c4c(cc(O)c(O)c4O)C(=O)OC[C@H]3OC(O)[C@@H]2OC(=O)c2cc(O)c(O)c(O)c2-c2c1cc(O)c(O)c2O (mixture of isomers) [Punicalagin]
antibacterial activity on growth of C. acnes (in words): has an antibacterial effect on the growth of C. acnes
Inhibition diameter (cm) (Deposit 15 μl): 1.1 ± 0.1 cm
Inhibition diameter (cm) (Deposit 30 μl): 1.4 ± 0.1 cm
